# From US20260042754A1, “Substituted Bicyclic Heteroaryl Sulfonamide Derivatives for the Treatment of Cancer” (NODUS ONCOLOGY LIMITED, priority 2022, published 2026)
# How the values were obtained:
# [1] = target: Recombinant His-tagged human PARG protein (Homo sapiens (Human), UniProt Q86W56); test: PARG enzymatic assay (TFMU-ADPr fluorescence); assay type: biochemical; details: 1 nM enzyme, 200 μM TFMU-ADPr, read after 30 minutes
# Method: Inhibition of PARG enzymatic activity by compounds was determined as follows: Recombinant His-tagged human PARG protein expressed in Sf21 insect cells (Adipogen AG, #40T-0022) was aliquoted and stored at −80° C. until use. The artificial enzyme substrate 4-(trifluoromethyl)umbelliferone (TFMU)-ADPr was prepared essentially as described (Drown B S et al, Cell Chemical Biology 2018) and stored at −20° C. as 10 mM stock solutions in DMSO (dimethyl sulfoxide) until use. For reactions, typical final concentration of the enzyme was 1 nM and of the TFMU-ADPr 200 μM. Reactions were carried out in black 384-well low volume round bottom assay plates (Corning, #4514) in a final volume of 10 μL. To this end, PARG was diluted to 1.67 nM in reaction buffer (50 mM K2HPO4, 50 mM KCl, 10 mM β-mercaptoethanol, pH 7.4) and 6 μL were dispensed per assay well using a multichannel pipette. Then compound was dispensed into each well using an Echo dispenser (BeckmanCoulter) to yield the pre-specified final concentration of the range of concentrations to be tested (typically 8-point serial concentrations ranging from either from 0.01 to 10 μM, or from 0.001 to 1 μM, or from 0.0001 to 0.1 μM), and being volume-corrected with 100% DMSO (0.5% final DMSO concentration in reaction mixtures). Plates were mixed, and after 15 minutes 4 μL TFMU-ADPr was added into each well using a multichannel pipette followed by brief mixing. Fluorescence intensity signals were then measured after 30 minutes on an EnVision microplate reader (PerkinElmer) using 380/10 nm and 535/25 nm filters for the excitation and emission, respectively (gain: 150). The assay window was set using DMSO control (top) and a control containing no PARG enzyme (bottom). Delta values were plotted as concentration-response curves fitted to a sigmoidal 4-parameter logistic model to calculate IC50 values (Scigilian Analyze).
# [2] = target: human PARG (PARG-NanoLuc fusion in HEK293T cells) (Homo sapiens (Human), UniProt Q86W56); test: PARG NanoBRET-based cellular target engagement assay; assay type: cell-based; details: HEK293T cells transfected with PARG-NanoLuc, NanoBRET probe 0.89 μM, 2 hours; read-out: PARG TE IC50
# Method: PARG Nano-luciferase construct: The PARG-NanoLuc® fusion vector was generated by Promega, by inserting the full length human PARG cDNA sequence encoding the 976 amino acid protein (Gene ID: 8505, UniProt: Q86W56) into the pNLF1-C [CMV/Hygro] vector (C-terminal fusions with NanoLuc® enzyme).
# PARG target engagement tracer synthesis: The NanoBRET tracer for PARG was prepared following a previously reported general tracer synthesis procedure.
# PARG Probe Displacement Assay Using NanoBRET: HEK293T (DSMZ #ACC 635) cells transiently transfected with the PARG-NanoLuc fusion construct were resuspended in phenol red-free OptiMEM (Gibco #11058-021) to a concentration of 2.4×10^5 cells/mL. 9 μL per well were then added to a white 384-well low volume microplate (Greiner #784080) and incubated for 24 hours under standard growth conditions.
# Then compound was dispensed into each well using an Echo dispenser (BeckmanCoulter) to yield the pre-specified final concentration of the range of concentrations to be tested (typically 8-point serial concentrations ranging from either from 0.01 to 10 μM, or from 0.001 to 1 μM, or from 0.0001 to 0.1 μM), and being volume-corrected with 100% DMSO (0.5% final DMSO concentration in reaction mixtures).
# After mixing and an incubation at room temperature for 15 min 1 μl of the NanoBRET probe (at 0.89 μM final concentration) was added to the microplate using a multichannel pipette. The plate was mixed and incubated in a 5% CO2 environment at 37° C. for 2 hours, and then 5 μL per well of a solution consisting of a 1:31.25 dilution of Nano-Glo substrate (Promega) and a 1:500 dilution of NanoLuc extracellular inhibitor (Promega) in phenol red-free OptiMEM was added to each well followed by another mixing step. Filtered luminescence was measured on an EnVision plate reader (PerkinElmer) equipped with a 460 nm filter (donor) and a 645 nm filter (acceptor). BRET ratios were plotted as concentration-response curves fitted to a sigmoidal 4-parameter logistic model to calculate IC50 values (Scigilian Analyze).
# NCI-H1650 = test: Modified cell proliferation assay (CellTiter-Glo), NCI-H1650; assay type: cell-based; details: Homo sapiens, NCI-H1650; modified protocol, 384-well, 300 cells per well, 120 h; highest concentration tested 30000 nM; read-out: NCI-H1650 GI50 (high PARG dependency)
# Method: The cell proliferation assay protocol was modified and used for RMUG-S for Examples 12-44, and subsequently used to test Examples 1-44 in the NCI-H1650 cell line.
# NCI-H1650 (ATCC, #CRL-5883) or RMUG-S were seeded on day 1 at 300 cells per well in a 384-well plate (Greiner, #781080) that assure assay linearity and optimal signal intensity in 25 μL of RPMI1640 media (Pan Biotech, #P04-22100) containing 10% FCS (Capricorn, #FBS-11A; Lot. CP22-5141) and 1% Glutamine (Pan Biotech, #P04-80100). After incubation for 24 h in humidified chambers at 37° C./5% CO2, compounds/DMSO were dispensed at different concentrations using an Echo 520 (Beckman Coulter). Cells were further incubated for 120 h at 37° C. and 5% CO2. Cells treated with the compound vehicle DMSO were used as negative controls and cells treated with 10 μM Staurosporine (LC Laboratories, #S-9300) served as positive controls.
# At day 6 the CellTiter Glo Reagent was prepared according to the instructions of the kit (Promega Inc.): Reagent was mixed 1:1 with cell culture medium. Thereon, mixture and assay plates were equilibrated at room temperature for 20 min. Equal volumes of the reagent-medium-mixture were added to the volume of culture medium present in each well. The plates were mixed at […] for 2 minutes on an orbital shaker (Timix5, Edmund Buehler GmbH). The microplates were then incubated at room temperature for 10 minutes for stabilization of the luminescent signal. Following incubation, the luminescence was recorded on a Victor X5 microplate reader (Perkin Elmer) using a 200 ms integration time. The data was then analyzed with Excel using the XLFIT Plugin (dose response Fit 205) for determination of the concentration necessary for half-maximal inhibition (i.e. the inflection point of the fitted curve).
# As quality control the Z′-factor was calculated from 16 positive and negative control values. Only assay results showing a Z′-factor≥0.5 were used for further analysis.
# Chain of human PARG (PARG-NanoLuc fusion in HEK293T cells) (Q86W56 whole entry, the tested form may be a part): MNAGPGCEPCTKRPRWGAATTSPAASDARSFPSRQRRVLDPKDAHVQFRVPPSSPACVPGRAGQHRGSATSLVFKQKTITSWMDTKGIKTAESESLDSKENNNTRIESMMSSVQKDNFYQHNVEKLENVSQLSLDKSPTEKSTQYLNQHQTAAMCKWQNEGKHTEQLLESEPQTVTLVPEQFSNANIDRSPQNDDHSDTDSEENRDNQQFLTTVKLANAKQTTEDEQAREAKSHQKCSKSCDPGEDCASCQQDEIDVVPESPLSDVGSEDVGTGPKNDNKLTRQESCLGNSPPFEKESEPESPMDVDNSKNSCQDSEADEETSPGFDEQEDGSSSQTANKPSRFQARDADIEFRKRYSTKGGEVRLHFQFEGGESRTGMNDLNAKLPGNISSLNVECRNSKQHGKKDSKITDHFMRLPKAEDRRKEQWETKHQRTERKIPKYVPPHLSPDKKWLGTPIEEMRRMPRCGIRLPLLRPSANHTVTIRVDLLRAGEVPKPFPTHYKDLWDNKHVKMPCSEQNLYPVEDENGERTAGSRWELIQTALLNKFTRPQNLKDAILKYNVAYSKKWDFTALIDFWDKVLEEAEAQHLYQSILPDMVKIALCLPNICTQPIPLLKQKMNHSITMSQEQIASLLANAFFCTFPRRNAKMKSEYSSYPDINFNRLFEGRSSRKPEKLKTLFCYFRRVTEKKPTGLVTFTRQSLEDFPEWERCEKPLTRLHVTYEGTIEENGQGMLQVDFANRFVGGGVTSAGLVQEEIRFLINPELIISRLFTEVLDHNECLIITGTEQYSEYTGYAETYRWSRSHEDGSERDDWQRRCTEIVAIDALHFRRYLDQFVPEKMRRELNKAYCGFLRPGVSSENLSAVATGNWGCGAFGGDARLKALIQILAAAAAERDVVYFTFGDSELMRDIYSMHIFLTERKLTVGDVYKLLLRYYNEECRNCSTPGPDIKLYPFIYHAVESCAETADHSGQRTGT
# Chain of Recombinant His-tagged human PARG protein (Q86W56 whole entry): as the sequence (Q86W56 whole entry, the tested form may be a part) above
IC50 [1],IC50 [2],GI50 (NCI-H1650),Structure (SMILES)
< 30 nM,< 30 nM,> 2000 nM,"CO/N=c1\[nH]c2c(-c3ccc(C(C)=O)cc3)cc(S(=O)(=O)NC3(C)CC3)cc2c(=O)n1Cc1cnn(C)c1 [Example 16, (E)-8-(4-acetylphenyl)-2-(methoxyimino)-3-((1-methyl-1H-pyrazol-4-yl)methyl)-N-(1-methylcyclopropyl)-4-oxo-1,2,3,4-tetrahydroquinazoline-6-sulfonamide]"
< 30 nM,< 30 nM,500 to 2000 nM,"CO/N=c1\[nH]c2c(-c3cnc(C(=O)N(C)C)[nH]3)cc(S(=O)(=O)NC3(C)CC3)cc2c(=O)n1Cc1cnn(C)c1 [Example 23, (E)-5-(2-(methoxyimino)-3-((1-methyl-1H-pyrazol-4-yl)methyl)-6-(N-(1-methylcyclopropyl)sulfamoyl)-4-oxo-1,2,3,4-tetrahydroquinazolin-8-yl)-N,N-dimethyl-1H-imidazole-2-carboxamide]"
< 30 nM,< 30 nM,500 to 2000 nM,"CO/N=c1\[nH]c2c(-c3ccc(C(=O)C4(C)CC4)cc3)cc(S(=O)(=O)NC3(C)CC3)cc2c(=O)n1Cc1cnn(C)c1 [Example 18, (E)-2-(methoxyimino)-3-((1-methyl-1H-pyrazol-4-yl)methyl)-8-(4-(1-methylcyclopropane-1-carbonyl)phenyl)-N-(1-methylcyclopropyl)-4-oxo-1,2,3,4-tetrahydroquinazoline-6-sulfonamide]"
< 30 nM,30 to 99 nM,500 to 2000 nM,"CCO/N=c1\[nH]c2ccc(S(=O)(=O)NC3(C)CC3)cc2c(=O)n1Cc1cnn(C)c1 [Example 10, 2-ethoxyimino-N-(1-methylcyclopropyl)-3-[(1-methylpyrazol-4-yl)methyl]-4-oxo-1H-quinazoline-6-sulfonamide]"
< 30 nM,< 30 nM,< 500 nM,"CO/N=c1\[nH]c2c(N3CCN(C(=O)N(C)CC(F)(F)F)[C@H](C)C3)cc(S(=O)(=O)NC3(C)CC3)cc2c(=O)n1Cc1cnn(C)c1 [Example 37, (R,E)-4-(2-(methoxyimino)-3-((1-methyl-1H-pyrazol-4-yl)methyl)-6-(N-(1-methylcyclopropyl)sulfamoyl)-4-oxo-1,2,3,4-tetrahydroquinazolin-8-yl)-N,2-dimethyl-N-(2,2,2-trifluoroethyl)piperazine-1-carboxamide]"
< 30 nM,< 30 nM,< 500 nM,"CO/N=c1\[nH]c2c(N3CCN(C(=O)C(C)C)[C@H](C)C3)cc(S(=O)(=O)NC3(C)CC3)cc2c(=O)n1Cc1cnn(C)c1 [Example 35, (R,E)-8-(4-isobutyryl-3-methylpiperazin-1-yl)-2-(methoxyimino)-3-((1-methyl-1H-pyrazol-4-yl)methyl)-N-(1-methylcyclopropyl)-4-oxo-1,2,3,4-tetrahydroquinazoline-6-sulfonamide]"
< 30 nM,< 30 nM,< 500 nM,"CO/N=c1\[nH]c2c(N3CCN(C(=O)C4CCCC4)[C@H](C)C3)cc(S(=O)(=O)NC3(C)CC3)cc2c(=O)n1Cc1cnn(C)c1 [Example 39, (R,E)-8-(4-(cyclopentanecarbonyl)-3-methylpiperazin-1-yl)-2-(methoxyimino)-3-((1-methyl-1H-pyrazol-4-yl)methyl)-N-(1-methylcyclopropyl)-4-oxo-1,2,3,4-tetrahydroquinazoline-6-sulfonamide]"
< 30 nM,< 30 nM,< 500 nM,"CO/N=c1\[nH]c2c(N3CCN(C(=O)C4(C)CCC4)[C@H](C)C3)cc(S(=O)(=O)NC3(C)CC3)cc2c(=O)n1Cc1cnn(C)c1 [Example 38, (R,E)-2-(methoxyimino)-3-((1-methyl-1H-pyrazol-4-yl)methyl)-8-(3-methyl-4-(1-methylcyclobutane-1-carbonyl)piperazin-1-yl)-N-(1-methylcyclopropyl)-4-oxo-1,2,3,4-tetrahydroquinazoline-6-sulfonamide]"
